This note sets out measurements from BindingDB's records for doi:10.1021/acschembio.5b00370 (University of Wisconsin-Madison, 2015).

The target of the assay is Probable UDP-galactopyranose mutase (Klebsiella pneumoniae, UniProt Q48481). Kind of assay: Fluorescence Polarization Assay. As for the experimental part: Polarization for the fluorescein-UDP conjugated probe in the presence of inhibitors was measured on a Tecan M1000 microplate reader, exciting with 470 nm light and monitoring emission at 525 nm. Each condition was tested in triplicate in the presence of 220 nM K. pneumoniae UGM and 23.3 nM of the probe.
For orientation: Polarisation of emitted light reports the rotation of a fluorescent probe.

pKd: −log10 of the molar value.

Chain of Probable UDP-galactopyranose mutase (Q48481 whole entry): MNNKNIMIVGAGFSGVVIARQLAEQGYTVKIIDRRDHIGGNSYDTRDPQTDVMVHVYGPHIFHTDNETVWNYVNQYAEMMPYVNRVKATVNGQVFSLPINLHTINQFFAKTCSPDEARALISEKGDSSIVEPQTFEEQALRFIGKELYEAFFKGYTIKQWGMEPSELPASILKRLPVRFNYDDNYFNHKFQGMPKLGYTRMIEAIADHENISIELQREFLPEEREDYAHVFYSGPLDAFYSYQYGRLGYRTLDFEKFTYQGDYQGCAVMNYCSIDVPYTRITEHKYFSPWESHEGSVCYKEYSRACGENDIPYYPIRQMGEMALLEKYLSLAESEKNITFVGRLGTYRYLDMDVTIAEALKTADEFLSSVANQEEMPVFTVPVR

For orientation: pKd means the Kd on a negative log10 scale, so that one unit is a factor of ten. Higher therefore signals a small Kd. `O=C(O)CC1Sc2nnc(-c3ccco3)n2N=C1c1ccccc1` (configuration not stated) [2‐[3‐(Furan‐2‐yl)‐6‐phenyl‐7H‐[1,2,4]triazolo[3,4‐b][1,3,4]thiadiazin‐7‐yl]acetate (6)] gave a pKd of 4.37.

On to `C=CCNc1nc(-c2cc(C)n(CCC(=O)O)c2C)cs1` [3‐{2,5‐Dimethyl‐3‐[2‐(prop‐2‐en‐1‐ylamino)‐1,3‐thiazol‐4‐yl]pyrrol‐1‐yl}propanoate (10)], for which the pKd is 5.22.
